These are literature values, as cited in patent US6645930B1, “Clean room wipes for neutralizing caustic chemicals” (EKC Technology, Inc., priority 2000, dated 2003).

SMILES strings stand for the structures.

The conditions of data set [1]: for pKa3: third ionization constant; for pKa1: first ionization constant.
The conditions of data set [2]: at 25° C.

For the molecule `O=C(O)CC(O)(CC(=O)O)C(=O)O` [Citric, citric acid], in data set [1], the pKa3 is 6.9.
Turning to `O=C(O)c1cc(O)c(O)c(O)c1` [Gallic, gallic acid], in data set [1], the pKa1 was 4.2 and the pKa3 is recorded as 8.9.
As to `O=C(O)[C@H](O)[C@@H](O)[C@H](O)[C@H](O)CO` [Gluconic, gluconic acid], in data set [1], the pKa1 was 3.5. Further, the pKa2 in data set [1] (second ionization constant) was 4.7.
Consider `CC(O)CO` (stereo not drawn) [propylene glycol], for which the vapor pressure in data set [2] is 0.02 kPascal.
